Converted amounts (≈) assume the structure as drawn.
Tests used:
A549 = test: MTT antiproliferative assay, A549 cells; type: cell-based; conditions: Homo sapiens; for inhibition at 2 µg/mL: A549, 2 μg/mL; for inhibition at 2 µg/mL / inhibition at 20 µg/mL: 48 h, MTT, read-out: Antiproliferative activity (growth inhibition, %); for inhibition at 20 µg/mL: A549, 20 μg/mL; for IC50: A549, MTT
Protocol: (§1) All the cells were seeded in 96-well plates and incubated with 5% CO2 at 37 °C for 24 h. Next, the compounds and the reference were dissolved into the culture medium. The final concentration of DMSO in the medium was less than 0.5%. After the cells were treated with compounds for 48 h, the supernatant was removed and 5 mg/mL of a fresh prepared solution of MTT was added to each well and incubated with the cells at 37 °C for another 4 h. The medium was removed, and 100 μL of testing solution was added to each well. After an overnight incubation with 5% CO2 at 37 °C, the absorbance was measured at 490/630 nm by the microplate reader. The IC50 was calculated using GraphPad Prism version 6.0 software (San Diego, CA, USA) from the non-linear curve.

PC-3 = test: MTT antiproliferative assay, PC-3 cells; type: cell-based; conditions: Homo sapiens; PC-3, MTT
Protocol: as §1

HT29 = test: MTT antiproliferative assay, HT29 cells; type: cell-based; conditions: Homo sapiens, HT-29; for inhibition at 2 µg/mL: HT29, 2 μg/mL; for inhibition at 2 µg/mL / inhibition at 20 µg/mL: 48 h, MTT, read-out: Antiproliferative activity (growth inhibition, %); for inhibition at 20 µg/mL: HT29, 20 μg/mL; for IC50: HT29, MTT
Protocol: as §1

MCF-7 = test: MTT antiproliferative assay, MCF-7 cells; type: cell-based; conditions: Homo sapiens, MCF7; MCF-7, MTT
Protocol: as §1

HepG2 = test: MTT antiproliferative assay, HepG2 cells; type: cell-based; conditions: Homo sapiens
Protocol: as §1

Karpas299 = test: MTT antiproliferative assay, Karpas299 cells; type: cell-based; conditions: Homo sapiens, KARPAS-299
Protocol: as §1

CC1(C)C2CC[C@]3(C)[C@H](C(=O)C=C4[C@@H]5C[C@@](C)(C(=O)O)CC[C@]5(C)CC[C@]43C)[C@@]2(C)CC[C@@H]1OC(=O)Nc1ccc(Cl)c(Cl)c1 (stereo partly drawn) [3a, 3β-(((3,4-dichlorophenyl)carbamoyl)oxy)-11-oxo-olean-12-en-30-oic acid]
inhibition at 2 µg/mL (A549): 23.9% | inhibition at 20 µg/mL (A549): 95.9% | IC50 (A549): 11.2 µg/mL (≈ 17 µM) | melting point: 260 to 261.4 °C | IC50 (PC-3): 11.9 µg/mL (≈ 18.1 µM) | inhibition at 2 µg/mL (HT29): 11.3% | inhibition at 20 µg/mL (HT29): 98% | IC50 (HT29): 11.4 µg/mL (≈ 17.4 µM) | IC50 (MCF-7): 9.31 µg/mL (≈ 14.1 µM) | IC50 (HepG2): 11.6 µg/mL (≈ 17.6 µM) | IC50 (Karpas299): 12.3 µg/mL (≈ 18.7 µM)

Cc1cc(C)cc(NC(=O)O[C@H]2CC[C@@]3(C)C(CC[C@]4(C)[C@@H]3C(=O)C=C3[C@@H]5C[C@@](C)(C(=O)O)CC[C@]5(C)CC[C@]34C)C2(C)C)c1 (stereo partly drawn) [3o, 3β-(((3,5-dimethylphenyl)carbamoyl)oxy)-11-oxo-olean-12-en-30-oic acid]
inhibition at 2 µg/mL (A549): 24.4% | inhibition at 20 µg/mL (A549): 86.3% | IC50 (A549): 3.24 µg/mL (≈ 5.24 µM) | melting point: 279.8 to 280.6 °C | IC50 (PC-3): 10.7 µg/mL (≈ 17.3 µM) | inhibition at 2 µg/mL (HT29): 55.8% | inhibition at 20 µg/mL (HT29): 98.2% | IC50 (HT29): 7.3 µg/mL (≈ 11.8 µM) | IC50 (MCF-7): 7.86 µg/mL (≈ 12.7 µM) | IC50 (HepG2): 4.75 µg/mL (≈ 7.69 µM) | IC50 (Karpas299): 11.4 µg/mL (≈ 18.5 µM)

CC1(C)C2CC[C@]3(C)[C@H](C(=O)C=C4[C@@H]5C[C@@](C)(C(=O)O)CC[C@]5(C)CC[C@]43C)[C@@]2(C)CC[C@@H]1OC(=O)Nc1cc(Cl)cc(Cl)c1 (stereo partly drawn) [3c, 3β-(((3,5-dichlorophenyl)carbamoyl)oxy)-11-oxo-olean-12-en-30-oic acid]
inhibition at 2 µg/mL (A549): 18.5% | inhibition at 20 µg/mL (A549): 95.4% | IC50 (A549): 12.3 µg/mL (≈ 18.6 µM) | melting point: 236.1 to 237.7 °C | IC50 (PC-3): 15 µg/mL (≈ 22.7 µM) | inhibition at 2 µg/mL (HT29): 8.39% | inhibition at 20 µg/mL (HT29): 98.6% | IC50 (HT29): 9.74 µg/mL (≈ 14.8 µM) | IC50 (MCF-7): 5.53 µg/mL (≈ 8.4 µM) | IC50 (HepG2): 10.7 µg/mL (≈ 16.2 µM) | IC50 (Karpas299): 15.5 µg/mL (≈ 23.5 µM)

C[C@@H](Oc1cc(-c2cnn(C3CCNCC3)c2)cnc1N)c1c(Cl)ccc(F)c1Cl [Crizotinib, reference compound]
inhibition at 2 µg/mL (A549): 67.6% | inhibition at 20 µg/mL (A549): 97.3% | IC50 (A549): 1.27 µg/mL (≈ 2.82 µM) | IC50 (PC-3): 3.3 µg/mL (≈ 7.33 µM) | inhibition at 2 µg/mL (HT29): 68.8% | inhibition at 20 µg/mL (HT29): 99.8% | IC50 (HT29): 0.67 µg/mL (≈ 1.49 µM) | IC50 (MCF-7): 1.84 µg/mL (≈ 4.09 µM) | IC50 (HepG2): 2.15 µg/mL (≈ 4.77 µM) | IC50 (Karpas299): 0.28 µg/mL (≈ 0.622 µM)

CC1(C)[C@@H](O)CC[C@]2(C)[C@H]3C(=O)C=C4[C@@H]5C[C@@](C)(C(=O)O)CC[C@]5(C)CC[C@@]4(C)[C@]3(C)CC[C@@H]12 [18β-GA, 18β-glycyrrhetinic acid]
inhibition at 2 µg/mL (A549): 0% | inhibition at 20 µg/mL (A549): 8.41% | IC50 (A549): > 40 µg/mL | IC50 (PC-3): > 40 µg/mL | inhibition at 2 µg/mL (HT29): 0% | inhibition at 20 µg/mL (HT29): 12.9% | IC50 (HT29): > 40 µg/mL | IC50 (MCF-7): > 40 µg/mL | IC50 (HepG2): > 40 µg/mL | IC50 (Karpas299): > 40 µg/mL

CC1(C)C2CC[C@]3(C)[C@H](C(=O)C=C4[C@@H]5C[C@@](C)(C(=O)N6CCOCC6)CC[C@]5(C)CC[C@]43C)[C@@]2(C)CC[C@@H]1OC(=O)Nc1cc(C(F)(F)F)cc(C(F)(F)F)c1 (stereo partly drawn) [4k, 3β-(((3,5-bis(trifluoromethyl)phenyl)carbamoyl)oxy)-30-morpholino-olean-12-ene-11,30-dione]
inhibition at 2 µg/mL (A549): 4.47% | inhibition at 20 µg/mL (A549): 0% | melting point: 313.4 to 314.7 °C | inhibition at 2 µg/mL (HT29): 13% | inhibition at 20 µg/mL (HT29): 14.9%

CN1CCN(CC(=O)O[C@H]2CC[C@@]3(C)C(CC[C@]4(C)[C@@H]3C(=O)C=C3[C@@H]5C[C@@](C)(C(=O)O)CC[C@]5(C)CC[C@]34C)C2(C)C)CC1 (stereo partly drawn) [6c, 3β-(2-(4-methylpiperazin-1-yl)acetoxy)-11-oxo-olean-12-en-30-oic acid]
inhibition at 2 µg/mL (A549): 0% | inhibition at 20 µg/mL (A549): 0% | melting point: 287.5 to 288.9 °C | inhibition at 2 µg/mL (HT29): 0% | inhibition at 20 µg/mL (HT29): 0%

CC1(C(=O)N2CCOCC2)CCC2(C)CCC3(C)C(=CC(=O)C4C5(C)CCC(OC(=O)Nc6cccc(C(F)(F)F)c6)C(C)(C)C5CCC43C)C2C1 (stereo not drawn) [4j, 3β-(((3-(trifluoromethyl)phenyl)carbamoyl)oxy)-30-morpholino-olean-12-ene-11,30-dione]
inhibition at 2 µg/mL (A549): 0% | inhibition at 20 µg/mL (A549): 0% | melting point: 295 to 296.7 °C | inhibition at 2 µg/mL (HT29): 20.3% | inhibition at 20 µg/mL (HT29): 36.4%

COc1cccc(NC(=O)O[C@H]2CC[C@@]3(C)C(CC[C@]4(C)[C@@H]3C(=O)C=C3[C@@H]5C[C@@](C)(C(=O)N6CCOCC6)CC[C@]5(C)CC[C@]34C)C2(C)C)c1 (stereo partly drawn) [4l, 3β-(((3-methoxyphenyl)carbamoyl)oxy)-30-morpholino-olean-12-ene-11,30-dione]
inhibition at 2 µg/mL (A549): 0% | inhibition at 20 µg/mL (A549): 0% | melting point: 305 to 306.8 °C | inhibition at 2 µg/mL (HT29): 13.6% | inhibition at 20 µg/mL (HT29): 16.6%

CC1(C)C2CC[C@]3(C)[C@H](C(=O)C=C4[C@@H]5C[C@@](C)(C(=O)N6CCOCC6)CC[C@]5(C)CC[C@]43C)[C@@]2(C)CC[C@@H]1OC(=O)Nc1cc(Cl)cc(Cl)c1 (stereo partly drawn) [4c, 3β-(((3,5-dichlorophenyl)carbamoyl)oxy)-30-morpholino-olean-12-ene-11,30-dione]
inhibition at 2 µg/mL (A549): 0% | inhibition at 20 µg/mL (A549): 0% | melting point: 278.2 to 280.3 °C | inhibition at 2 µg/mL (HT29): 7.41% | inhibition at 20 µg/mL (HT29): 2.76%

CC1(C)C2CC[C@]3(C)[C@H](C(=O)C=C4[C@@H]5C[C@@](C)(C(=O)O)CC[C@]5(C)CC[C@]43C)[C@@]2(C)CC[C@@H]1OC(=O)Nc1ccc(C(F)(F)F)cc1 (stereo partly drawn) [3i, 3β-(((4-(trifluoromethyl)phenyl)carbamoyl)oxy)-11-oxo-olean-12-en-30-oic acid]
inhibition at 2 µg/mL (A549): 15.9% | inhibition at 20 µg/mL (A549): 87.5% | melting point: 242.1 to 242.9 °C | inhibition at 2 µg/mL (HT29): 19.4% | inhibition at 20 µg/mL (HT29): 90.1%

CC1(C)C2CC[C@]3(C)[C@H](C(=O)C=C4[C@@H]5C[C@@](C)(C(=O)O)CC[C@]5(C)CC[C@]43C)[C@@]2(C)CC[C@@H]1OC(=O)Nc1cccc(Cl)c1 (stereo partly drawn) [3e, 3β-(((3-chlorophenyl)carbamoyl)oxy)-11-oxo-olean-12-en-30-oic acid]
inhibition at 2 µg/mL (A549): 14.3% | inhibition at 20 µg/mL (A549): 74.9% | IC50 (A549): 11.3 µg/mL (≈ 18.2 µM) | IC50 (PC-3): 9.75 µg/mL (≈ 15.6 µM) | inhibition at 2 µg/mL (HT29): 18.8% | inhibition at 20 µg/mL (HT29): 96.4% | IC50 (HT29): 10.9 µg/mL (≈ 17.5 µM) | IC50 (MCF-7): 8.51 µg/mL (≈ 13.6 µM) | IC50 (HepG2): 11.9 µg/mL (≈ 19.1 µM) | IC50 (Karpas299): 7.31 µg/mL (≈ 11.7 µM)

Cc1ccc(NC(=O)O[C@H]2CC[C@@]3(C)C(CC[C@]4(C)[C@@H]3C(=O)C=C3[C@@H]5C[C@@](C)(C(=O)O)CC[C@]5(C)CC[C@]34C)C2(C)C)cc1Cl (stereo partly drawn) [3f, 3β-(((3-chloro-4-methylphenyl)carbamoyl)oxy)-11-oxo-olean-12-en-30-oic acid]
inhibition at 2 µg/mL (A549): 11.4% | inhibition at 20 µg/mL (A549): 80.2% | melting point: 270.7 to 271.6 °C | inhibition at 2 µg/mL (HT29): 15.6% | inhibition at 20 µg/mL (HT29): 89.2%

CC1(C)C2CC[C@]3(C)[C@H](C(=O)C=C4[C@@H]5C[C@@](C)(C(=O)N6CCOCC6)CC[C@]5(C)CC[C@]43C)[C@@]2(C)CC[C@@H]1OC(=O)Nc1ccc(Cl)c(Cl)c1 (stereo partly drawn) [4a, 3β-(((3,4-dichlorophenyl)carbamoyl)oxy)-30-morpholino-olean-12-ene-11,30-dione]
inhibition at 2 µg/mL (A549): 0% | inhibition at 20 µg/mL (A549): 0% | melting point: 292.5 to 293 °C | inhibition at 2 µg/mL (HT29): 8.88% | inhibition at 20 µg/mL (HT29): 18.3%

CC1(C(=O)N2CCOCC2)CCC2(C)CCC3(C)C(=CC(=O)C4C5(C)CCC(OC(=O)Nc6ccc(Cl)cc6)C(C)(C)C5CCC43C)C2C1 (stereo not drawn) [4d, 3β-(((4-chlorophenyl)carbamoyl)oxy)-30-morpholino-olean-12-ene-11,30-dione]
inhibition at 2 µg/mL (A549): 0% | inhibition at 20 µg/mL (A549): 54.4% | melting point: 298.4 to 299.7 °C | inhibition at 2 µg/mL (HT29): 16.3% | inhibition at 20 µg/mL (HT29): 53.7%

— article PMC6803848, “Exploring New Structural Features of the 18β-Glycyrrhetinic Acid Scaffold for the Inhibition of Anaplastic Lymphoma Kinase” (Molecules, 2019)
